Among the test systems are SNB-78 CNS; IGROV1 ovarian; OVCAR-4 ovarian; HT29 colon; KM20L2 colon; NCI-H226 lung; EKVX NSCLC; SR leukemia; SNB-19 CNS; NCI/ADR-RES ovarian.
Common to all, as to experiment: NCI-60 cell line screen, 48 h

The source of these data is PubChem BioAssay (NCI).

SMILES strings stand for the structures. Several values for one entry are separate records, joined by “and”; a condition that tells them apart may be missing. Equal values may be shown once.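 1) Cells in 96-well plates. 2) Compound, 48 h, 5 concentrations. 3) Linear interpolation between surrounding doses. 4) Unreached endpoint = highest concentration. The concentration for 50% growth inhibition is given as GI50. Definition used: TGI = concentration required for complete inhibition of growth.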

For the molecule `Cc1c(Cl)ccc2c1NC(=O)C2(O)C(C(=O)c1ccccc1)c1ccccc1` (configuration not stated), the TGI in the experiment with SNB-78 CNS was over 100 µM; with IGROV1 ovarian it was over 100 µM; in the experiment on OVCAR-4 ovarian, 28.7 µM; in the experiment with HT29 colon, over 100 µM; in the experiment on KM20L2 colon, over 100 µM; in the experiment on NCI-H226 lung it was over 100 µM. The TGI with EKVX NSCLC was over 100 µM; with SR leukemia, 60.2 µM; in the experiment with SNB-19 CNS, over 100 µM.
For `CN(C)CCNC(=O)c1cc2ccccc2c2nc3ccccc3nc12`, the TGI in the experiment on SNB-78 CNS was 16.4 µM; with IGROV1 ovarian, over 20.7 µM; in the experiment on OVCAR-4 ovarian, 2.34 µM; in the experiment with HT29 colon it was 2.9 µM; in the experiment on KM20L2 colon it was 2.93 µM; in the experiment with NCI-H226 lung, 2.44 µM. Also, the TGI is 7.37 µM in the experiment with EKVX NSCLC, 3.68 µM in the experiment with SR leukemia and 8.2 µM with SNB-19 CNS.
Regarding `CCC(C)(C)C(=O)O[C@H]1C[C@@H](C)C=C2C=C[C@H](C)[C@H](CC[C@@H]3C[C@@H](O)CC(=O)O3)[C@H]21`, the TGI in the experiment with SNB-78 CNS is over 30 µM; in the experiment on IGROV1 ovarian, 13.2 µM and 4.5 µM; with NCI/ADR-RES ovarian, 12.1 µM; in the experiment on OVCAR-4 ovarian, 20.5 µM and > 30 µM; in the experiment with HT29 colon, 20.2 µM and 21.3 µM; with KM20L2 colon, over 30 µM. The TGI was 9.27 µM in the experiment with NCI-H226 lung; 19.3 µM and > 30 µM in the experiment with EKVX NSCLC; 13.1 µM and > 30 µM in the experiment with SR leukemia; 19.9 µM in the experiment with SNB-19 CNS. In addition, the GI50 in the experiment with IGROV1 ovarian is 2.08 µM; in the experiment on NCI/ADR-RES ovarian, 0.614 µM; in the experiment on OVCAR-4 ovarian it was 6.1 µM; in the experiment on NCI-H226 lung, 2.32 µM; with EKVX NSCLC, 2.78 µM; with SR leukemia it was 1.72 µM. Also, the GI50 in the experiment with SNB-19 CNS is 3.13 µM.
Turning to `Cc1ccc(NC(=O)C(=O)C2C(=O)N(c3ccccc3)N=C2N)cc1C` (configuration not stated), the TGI with SNB-78 CNS, with IGROV1 ovarian, with OVCAR-4 ovarian, in the experiment with HT29 colon, in the experiment with KM20L2 colon and in the experiment with NCI-H226 lung was over 100 µM each time. Also, the TGI with EKVX NSCLC, in the experiment on SR leukemia and with SNB-19 CNS was over 100 µM throughout.
Take `[O-]c1c2c(nn1-c1ccccc1)c1ccccc1c[n+]2Cc1ccccc1`: the TGI with SNB-78 CNS, with IGROV1 ovarian, in the experiment with OVCAR-4 ovarian, in the experiment with HT29 colon, in the experiment with KM20L2 colon and in the experiment on NCI-H226 lung was over 100 µM in each case. Besides, the TGI with EKVX NSCLC, with SR leukemia and in the experiment with SNB-19 CNS was over 100 µM in each case.
On to `Cc1[nH]c2ccccc2c1C1Cc2ccccc2N1C(=O)/C=C/C=C/c1ccccc1` (configuration not stated), for which the TGI in the experiment with SNB-78 CNS, in the experiment with IGROV1 ovarian, with OVCAR-4 ovarian, in the experiment with HT29 colon, in the experiment on KM20L2 colon and in the experiment on NCI-H226 lung was over 100 µM in each case. For the same molecule, the TGI with EKVX NSCLC, in the experiment on SR leukemia and in the experiment on SNB-19 CNS was over 100 µM in each case.
Regarding `CCOC12OC3=C(CC1CC1=C(CCC1=O)O2)C(=O)CC3` (configuration not stated), the TGI in the experiment with SNB-78 CNS, with IGROV1 ovarian, in the experiment with OVCAR-4 ovarian, in the experiment on HT29 colon, with KM20L2 colon and in the experiment with NCI-H226 lung was over 100 µM throughout. Also, the TGI in the experiment on EKVX NSCLC, in the experiment with SR leukemia and with SNB-19 CNS was over 100 µM each time.
For the molecule `Cc1cc(NS(=O)(=O)c2ccc(N=Nc3cc(N=Nc4ccc(S(=O)(=O)Nc5cc(C)nc(C)n5)cc4)c4c(NC(=O)C(Cl)Cl)cccc4c3OC(=O)C(Cl)Cl)cc2)nc(C)n1` (tested in a mixture with another compound), the TGI was over 100 µM in the experiment on SNB-78 CNS; 53.2 µM in the experiment on IGROV1 ovarian; 43.7 µM in the experiment with OVCAR-4 ovarian; 46 µM with HT29 colon; 60.8 µM in the experiment with KM20L2 colon; 44.9 µM in the experiment with NCI-H226 lung. The TGI in the experiment with EKVX NSCLC worked out at 53.5 µM; in the experiment on SR leukemia it was 94.8 µM; in the experiment on SNB-19 CNS, 33.6 µM.
As to `COC(=O)NC1C(C)OC(OC2C/C=C(/C)C3C=CC4C(OC5CC(OC6CC(O)C(OC7CC(O)C(OC)C(C)O7)C(C)O6)C(O)C(C)O5)C(C)CC(C)C4C3(C)/C(O)=C3\C(=O)OC4(CC(C)C(CO)=CC4/C=C\2C)C3=O)CC1(C)[N+](=O)[O-]` (configuration not stated), the TGI in the experiment on SNB-78 CNS is 29.8 µM; with IGROV1 ovarian, 34 µM and 28.5 µM; with NCI/ADR-RES ovarian, over 100 µM; in the experiment with OVCAR-4 ovarian, 11.8 µM; with HT29 colon, 15.9 µM and 35.9 µM; in the experiment with KM20L2 colon, 34 µM. Further, the TGI in the experiment on NCI-H226 lung is 22.3 µM and 31.6 µM; in the experiment with EKVX NSCLC it was 50 µM and 19.3 µM; in the experiment on SR leukemia it was 50 µM and > 100 µM; with SNB-19 CNS it was 50 µM and 52.4 µM. For the same molecule, the GI50 is 12.7 µM in the experiment with IGROV1 ovarian; over 50 µM in the experiment with NCI/ADR-RES ovarian; 8.34 µM with HT29 colon; 10 µM in the experiment on NCI-H226 lung; 16.7 µM in the experiment on EKVX NSCLC; 23.2 µM in the experiment with SR leukemia. Further, the GI50 in the experiment on SNB-19 CNS is 15.9 µM.
Consider `COc1ccc2c(=O)c(C)c(-c3ccccc3)oc2c1CN(C)C`, for which the TGI in the experiment on SNB-78 CNS, in the experiment on IGROV1 ovarian, in the experiment on OVCAR-4 ovarian, in the experiment with HT29 colon, in the experiment with KM20L2 colon and with NCI-H226 lung was over 100 µM throughout. For the same molecule, the TGI in the experiment on EKVX NSCLC, with SR leukemia and in the experiment with SNB-19 CNS was over 100 µM each time. Besides, in the experiment on HT29 colon, the GI50 was > 100 µM and 30.6 µM.
